Measurements taken from ChEMBL document CHEMBL4483862, “Open-source discovery of chemical leads for next-generation chemoprotective antimalarials” (2018).

Test system: Plasmodium berghei
Test: Luciferase/luciferin-expressing antifolate-resistant parasites were used to infect a culture of HepG2 cells that were pre-incubated with compounds. Infected hepatocytes emit light due to the luciferase reaction. Assay results are presented as the percent inhibition of light emission compared to control. […]
Assay type: functional
Conditions: sporozoite; for IC90: read-out: LUCIFERASE INFECTION ASSAY - IC90

SMILES	IC90 [µM]	further results
Cc1cc(NNC(=O)Nc2cccc(Cl)c2)nc2c1c(C)nn2C	> 9.57	IC50 (HEPG2TOX_HILL_SLOPE 1.19, HEPG2TOX_R_SQUARED 0.796, PBLUC_HILL_SLOPE 1.82, PBLUC_R_SQUARED 0.0269, read-out: LUCIFERASE INFECTION ASSAY - IC50): 5.86 µM
CN(CCO)c1ccc(C(=O)c2ccc(N(C)CCO)cc2)cc1	9.22	IC50 (HEPG2TOX_HILL_SLOPE 1.17, HEPG2TOX_R_SQUARED 0.868, PBLUC_HILL_SLOPE 1.55, PBLUC_R_SQUARED 0.285, read-out: LUCIFERASE INFECTION ASSAY - IC50): 2.24 µM
c1cncc(-c2ccc3ncc(-c4cccnc4)n3n2)c1	2.92	IC50 (HEPG2TOX_HILL_SLOPE 1.17, HEPG2TOX_R_SQUARED 0.949, PBLUC_HILL_SLOPE 1.66, PBLUC_R_SQUARED 0.633, read-out: LUCIFERASE INFECTION ASSAY - IC50): 0.778 µM
CNC(=O)c1cccc(-c2ccc3ncc(-c4ccc(NC(C)=O)cc4)n3n2)c1	2.63	IC50 (HEPG2TOX_HILL_SLOPE 1.21, HEPG2TOX_R_SQUARED 0.751, PBLUC_HILL_SLOPE 4.52, PBLUC_R_SQUARED 0.725, read-out: LUCIFERASE INFECTION ASSAY - IC50): 1.62 µM
CN(C)c1ccc(CNc2ncnc3ccccc23)cc1	> 10	IC50 (HEPG2TOX_HILL_SLOPE 1.21, HEPG2TOX_R_SQUARED 0.974, PBLUC_HILL_SLOPE 1.4, PBLUC_R_SQUARED 0.594, read-out: LUCIFERASE INFECTION ASSAY - IC50): 4.35 µM
CC(C)NC(=O)c1c(NC(=O)c2cccc(Cl)c2)nc2ccccn12	2.22	IC50 (HEPG2TOX_HILL_SLOPE 1.2, HEPG2TOX_R_SQUARED 0.976, PBLUC_HILL_SLOPE 4.43, PBLUC_R_SQUARED 0.437, read-out: LUCIFERASE INFECTION ASSAY - IC50): 1.35 µM
COC(=O)c1c(C)[nH]c(C(=O)C(C)OC(=O)c2ccccc2NS(=O)(=O)c2ccc(Br)s2)c1C (configuration not stated)	> 10	IC50 (HEPG2TOX_HILL_SLOPE 1.22, HEPG2TOX_R_SQUARED 0.375, PBLUC_HILL_SLOPE 2.55, PBLUC_R_SQUARED 0.409, read-out: LUCIFERASE INFECTION ASSAY - IC50): 7.98 µM
COc1ccc(/C=C/C#N)c(Cl)c1OC	> 14.8	IC50 (HEPG2TOX_HILL_SLOPE 1.17, HEPG2TOX_R_SQUARED 0.985, PBLUC_HILL_SLOPE 2.95, PBLUC_R_SQUARED 0.12, read-out: LUCIFERASE INFECTION ASSAY - IC50): 11.3 µM
CC(Nc1ncnc2scc(-c3ccccc3)c12)c1ccc(S(C)(=O)=O)cc1 (configuration not stated)	7.11	IC50 (HEPG2TOX_HILL_SLOPE 1.17, HEPG2TOX_R_SQUARED 0.977, PBLUC_HILL_SLOPE 2.44, PBLUC_R_SQUARED 0.865, read-out: LUCIFERASE INFECTION ASSAY - IC50): 2.89 µM
CCOc1ccc(CN(C)c2ncnc3sc(C)c(C)c23)cc1OC	3.65	IC50 (HEPG2TOX_HILL_SLOPE 1.19, HEPG2TOX_R_SQUARED 0.971, PBLUC_HILL_SLOPE 15.4, PBLUC_R_SQUARED 0.0404, read-out: LUCIFERASE INFECTION ASSAY - IC50): 3.16 µM
CCOC(=O)C1=C(CSc2nc3ccccc3c(=O)n2-c2ccc(OC(F)F)cc2)NC(=O)NC1C (configuration not stated)	> 10	IC50 (HEPG2TOX_HILL_SLOPE 1.17, HEPG2TOX_R_SQUARED 0.429, PBLUC_HILL_SLOPE 8.23, PBLUC_R_SQUARED 0.327, read-out: LUCIFERASE INFECTION ASSAY - IC50): 8.35 µM
Cn1ccc2cc(-c3cn4c(-c5cccc(O)c5)cnc4cn3)ccc21	3.11	IC50 (HEPG2TOX_HILL_SLOPE 1.21, HEPG2TOX_R_SQUARED 0.948, PBLUC_HILL_SLOPE 1.63, PBLUC_R_SQUARED 0.761, read-out: LUCIFERASE INFECTION ASSAY - IC50): 0.805 µM
CN(C1CCCCC1)S(=O)(=O)c1cccc(C(=O)Nc2ccc(S(=O)(=O)NCc3ccco3)cc2)c1	1.72	IC50 (HEPG2TOX_HILL_SLOPE 1.16, HEPG2TOX_R_SQUARED 0.836, PBLUC_HILL_SLOPE 2.1, PBLUC_R_SQUARED 0.409, read-out: LUCIFERASE INFECTION ASSAY - IC50): 0.606 µM
Brc1ccc(-c2csc3ncnc(NCc4ccc(-n5ccnc5)nc4)c23)cc1	> 10	IC50 (HEPG2TOX_HILL_SLOPE 1.16, HEPG2TOX_R_SQUARED 0.868, read-out: LUCIFERASE INFECTION ASSAY - IC50): > 10 µM
CCCC1(CCC)NC(=O)N(CC(=O)/N=c2\sc3ccccc3n2C)C1=O	> 10	IC50 (HEPG2TOX_HILL_SLOPE 1.17, HEPG2TOX_R_SQUARED 0.854, PBLUC_HILL_SLOPE 1.78, PBLUC_R_SQUARED 0.281, read-out: LUCIFERASE INFECTION ASSAY - IC50): 4.54 µM
CSCC[C@H](NC(=O)CCN(c1cc(C)cc(C)c1)S(=O)(=O)c1ccc(Cl)cc1)c1nc2ccccc2[nH]1	> 10	IC50 (HEPG2TOX_HILL_SLOPE 1.18, HEPG2TOX_R_SQUARED 0.616, PBLUC_HILL_SLOPE 8.87, PBLUC_R_SQUARED 0.619, read-out: LUCIFERASE INFECTION ASSAY - IC50): 8.36 µM

SMILES	IC90 [µM]	further results
Cc1cc(C)n(-c2ccc(NC(=O)c3ccc(CN4CCCCC4)cc3)cn2)n1	> 10	IC50 (HEPG2TOX_HILL_SLOPE 1.19, HEPG2TOX_R_SQUARED 0.854, PBLUC_HILL_SLOPE 17.4, PBLUC_R_SQUARED 0.154, read-out: LUCIFERASE INFECTION ASSAY - IC50): 9.79 µM
COc1ccc(-c2cnc3cnc(-c4ccc5c(ccn5C)c4)cn23)cn1	1.22	IC50 (HEPG2TOX_HILL_SLOPE 1.17, HEPG2TOX_R_SQUARED 0.992, PBLUC_HILL_SLOPE 12.5, PBLUC_R_SQUARED 0.775, read-out: LUCIFERASE INFECTION ASSAY - IC50): 1.02 µM
CNc1snc(C)c1C(=O)NCc1ccc(COCC(F)(F)F)cc1	1.72	IC50 (HEPG2TOX_HILL_SLOPE 1.16, HEPG2TOX_R_SQUARED 0.865, PBLUC_HILL_SLOPE 3.24, 27.9, PBLUC_R_SQUARED 0.892, 0.904, read-out: LUCIFERASE INFECTION ASSAY - IC50): 1.12 µM
COc1ccc(/C=C/C(=O)c2cc(Cl)c(OC)cc2OC)cc1O	1.26	IC50 (HEPG2TOX_HILL_SLOPE 1.17, HEPG2TOX_R_SQUARED 0.559, PBLUC_HILL_SLOPE 18.3, PBLUC_R_SQUARED 0.538, read-out: LUCIFERASE INFECTION ASSAY - IC50): 1.12 µM
Cn1ccc2cc(-c3cnc4cnc(-c5ccccc5)cn34)ccc21	0.242	IC50 (HEPG2TOX_HILL_SLOPE 1.21, HEPG2TOX_R_SQUARED 0.923, PBLUC_HILL_SLOPE 1.33, PBLUC_R_SQUARED 0.803, read-out: LUCIFERASE INFECTION ASSAY - IC50): 0.0465 µM
CC(=O)c1c(C)[nH]c(C(=O)OCC(=O)NC2CCCc3ccccc32)c1C (configuration not stated)	> 10	IC50 (HEPG2TOX_HILL_SLOPE 1.17, HEPG2TOX_R_SQUARED 0.444, read-out: LUCIFERASE INFECTION ASSAY - IC50): > 10 µM
CSc1sc(C(=O)N/N=C/c2ccc(Cl)cc2)cc1S(=O)(=O)C(C)C	5.75	IC50 (HEPG2TOX_HILL_SLOPE 1.17, HEPG2TOX_R_SQUARED 0.979, PBLUC_HILL_SLOPE 3, PBLUC_R_SQUARED 0.696, read-out: LUCIFERASE INFECTION ASSAY - IC50): 2.77 µM
Cc1nc2c3ccccc3nc(SCC(=O)Nc3ccccc3)n2n1	1.43	IC50 (HEPG2TOX_HILL_SLOPE 1.21, HEPG2TOX_R_SQUARED 0.956, PBLUC_HILL_SLOPE 1.03, PBLUC_R_SQUARED 0.933, read-out: LUCIFERASE INFECTION ASSAY - IC50): 0.169 µM
Cc1cc(C(=O)Cn2cnc3ccccc3c2=O)c(C)n1-c1ccccc1	> 10	IC50 (HEPG2TOX_HILL_SLOPE 1.21, HEPG2TOX_R_SQUARED 0.806, PBLUC_HILL_SLOPE 1.3, PBLUC_R_SQUARED 0.604, read-out: LUCIFERASE INFECTION ASSAY - IC50): 2.96 µM
O=C1C(=C2NC=C(c3ccc(Cl)cc3)O2)Sc2ncccc21	1.69	IC50 (HEPG2TOX_HILL_SLOPE 1.16, HEPG2TOX_R_SQUARED 0.581, PBLUC_HILL_SLOPE 117, PBLUC_R_SQUARED 0.316, read-out: LUCIFERASE INFECTION ASSAY - IC50): 1.66 µM
Cn1cc(-c2cn3c(-c4ccc5c(ccn5C)c4)cnc3cn2)cn1	1.47	IC50 (HEPG2TOX_HILL_SLOPE 1.22, HEPG2TOX_R_SQUARED 0.939, PBLUC_HILL_SLOPE 1.34, PBLUC_R_SQUARED 0.885, read-out: LUCIFERASE INFECTION ASSAY - IC50): 0.287 µM
CN1/C(=C\Sc2ccccc2[N+](=O)[O-])C(C)(C)c2ccccc21	> 10	IC50 (HEPG2TOX_HILL_SLOPE 1.18, HEPG2TOX_R_SQUARED 0.48, PBLUC_HILL_SLOPE 2.15, PBLUC_R_SQUARED 0.378, read-out: LUCIFERASE INFECTION ASSAY - IC50): 8.07 µM
O=C(c1ccco1)N1CCN(c2ncnc3c2[nH]c2ccc(F)cc23)CC1	> 9.03	IC50 (HEPG2TOX_HILL_SLOPE 1.18, HEPG2TOX_R_SQUARED 0.668, PBLUC_HILL_SLOPE 1.45, PBLUC_R_SQUARED 0.295, read-out: LUCIFERASE INFECTION ASSAY - IC50): > 9.03 µM
CN(C)C(=O)C1CCCN1c1ccc(C(=O)c2ccccc2)cc1[N+](=O)[O-] (configuration not stated)	> 10	IC50 (HEPG2TOX_HILL_SLOPE 1.22, HEPG2TOX_R_SQUARED 0.897, PBLUC_HILL_SLOPE 2.78, PBLUC_R_SQUARED 0.507, read-out: LUCIFERASE INFECTION ASSAY - IC50): 6.2 µM
Cc1ccc(O)c(C(=O)c2c[nH]c(-c3nc4ccccc4[nH]3)c2)c1	> 10	IC50 (HEPG2TOX_HILL_SLOPE 1.19, HEPG2TOX_R_SQUARED 0.817, PBLUC_HILL_SLOPE 1.99, PBLUC_R_SQUARED 0.294, read-out: LUCIFERASE INFECTION ASSAY - IC50): 3.74 µM
